Patent US20200216812A1, “IN VIVO METHOD FOR DIFFERENTIATING HUMAN PLURIPOTENT STEM CELLS INTO ATRIAL CARDIOMYOCYTES” (Ncardia B.V., priority 2016, published 2020)

Legend:
Format in all cases: cell-based, human
COUP-TFI = assay: Qualitative immunoreactivity signal for COUP-TFI in hiPSC-derived cardiomyocytes (co-staining with alpha actinin); design: key: +++: Strongest immunoreactivity signal (i.e. fluorescence staining); ++: Moderate immunoreactivity signal (i.e. fluorescence staining); +: Lowest immunoreactivity signal (i.e. fluorescence staining); +/−: Marginal immunoreactivity signal (i.e. fluorescence staining) (i.e. very low signal, not consistently observed in all cells).; −: No immunoreactivity signal (i.e. fluorescence staining)
Experimental: (§1) The purpose of this experiment was to determine the influence of retinoic acid (RA) (i.e. all-trans retinoic acid was used in the experiments below) on differentiation of hiPSC into atrial cardiomyocytes. Specifically, the influence of all-trans retinoic acid concentration (1 microM vs 10 microM) as well as the effect of timing/duration of retinoic acid application (i.e. d2-4 vs d3-d4 vs d2-18) were tested according to the following experimental scheme:
(§2) The aqueous media consisted of the following composition: 46.5% IMDM (Gibco 21056), 0.25% Bovostar BSA, 46.5% Ham's F12 with Glutamax, 2 mM Glutamax, 450 nM alphaMTG, 0.05 mg/ml ascorbic acid, 0.5% 5000 U/ml Pen/Strep (Gibco 12070), 0.01% 1000* Trace elements mix B (Cellgro 99-176-CL), 0.1% 1000* Trace elements mix C (Cellgro 99-176-CL). The aqueous media was used in all four treatment groups, except that RA was added at different concentrations depending on the given treatment group, i.e. 10 microM for treatment group 1 and 2 and 1 microM for treatment groups 3 and 4.
(§3) For all treatment groups, CHIR-99021 was used at a concentration of 5 microM.
(§4) For all experimental groups, a combination of 5 microM of XAV-939 and 0.25 microM of IWP-L6 was used. Plating of hiPSC hiPSC were seeded in 12-well plates at density of 60.000 cells per well or a split ratio that was empirically determined to give 30-80% confluence after 4 days. Culture media was replaced after 4 days, in each treatment group, with a differentiation media as described in Table 1.
(§5) Step a): The hiPSC were contacted with 5 microM of CHIR-99021 for a period of 48 hours. At the term of step a), the media was refreshed, i.e. replaced by a media devoid of CHIR-99021 and comprising 5 microM of XAV-939 and 0.25 microM of IWP-L6.
(§6) Step b): Immediately after having refreshed the medium of step a), i.e. immediately after the 48 hours of step a) (which correspond to 2 days after having initiated step a), the cells were contacted with 5 microM of XAV-939 and 0.25 microM of IWP-L6 as well as with 10 microM of all trans retinoic acid. The cells were cultured in this media for 48 hours. At the term of step b), the media was refreshed with a media but devoid of CHIR-99021, XAV-939, and IWP-L6. The hiPSC-derived cardiomyocytes were further cultured until 14 days after initiating step a), after which they were harvested and submitted to immunohistochemical procedure for assessment of atrial phenotype (see example 3 below).
(§7) Step b): Immediately after having refreshed the medium of step a), i.e. immediately after the 48 hours of step a), the cells were contacted with 5 microM of XAV-939 and 0.25 microM of IWP-L6. At 24 hours after initiating step b) (which corresponds to 3 days after having initiated step a), 10 microM of retinoic acid was added to the media of step b). […]

COUP-TFII = assay: Qualitative immunoreactivity signal for COUP-TFII in hiPSC-derived cardiomyocytes (co-staining with alpha actinin); design: key: +++: Strongest immunoreactivity signal (i.e. fluorescence staining); ++: Moderate immunoreactivity signal (i.e. fluorescence staining); +: Lowest immunoreactivity signal (i.e. fluorescence staining); +/−: Marginal immunoreactivity signal (i.e. fluorescence staining) (i.e. very low signal, not consistently observed in all cells).; −: No immunoreactivity signal (i.e. fluorescence staining)
Experimental: as §1, §2, §3, §4, §5, §6, §7

hiPSC = assay: Differentiation of hiPSC into cardiomyocytes having an atrial phenotype (phenotype analysis, text summary); settings: for differentiation of hiPSC into atrial cardiomyocytes (immunoreactive signal for COUP-TF1 and/or COUP-TF1): 1 microM; for differentiation of hiPSC into cardiomyocytes having an atrial phenotype (immunoreactive signal for COUP-TF1 and/or COUP-TF1): 10 microM
Experimental: as §1, §5, §6
as §6, with “step” for “step a) (which correspond to 2 days after having initiated step”, “of IWP-L6. At 24 hours after initiating step b) (which corresponds to 3 days after having initiated step a),” for “of IWP-L6 as well as with”, “of” for “of all trans”, “retinoic acid was added to the media of step b).” for “retinoic acid.”, “for 24” for “for 48”
as §7, with “1” for “10”, “b). The cells were cultured in this media for 24 hours. At the term of step b), the media was refreshed with a media but devoid of CHIR-99021, XAV-939, and IWP-L6.” for “b).”

[1] = treatment group 1: 10 microM RA/d 2-4
[2] = treatment group 2: 10 microM RA/d 3-4
[3] = treatment group 3: 1 microM RA/d 3-4
[4] = treatment group 4: 1 microM RA/d 2-14 + 4

## CC1=C(/C=C/C(C)=C/C=C/C(C)=C/C(=O)O)C(C)(C)CCC1 [RA, all-trans retinoic acid]
COUP-TFI; [1]
  intensity of the immunoreactivity signal for COUP-TFI: ++
COUP-TFI; [2]
  intensity of the immunoreactivity signal for COUP-TFI: +
COUP-TFI; [3]
  intensity of the immunoreactivity signal for COUP-TFI: −
COUP-TFI; [4]
  intensity of the immunoreactivity signal for COUP-TFI: +/−
COUP-TFII; [1]
  intensity of the immunoreactivity signal for COUP-TFII: +++
COUP-TFII; [2]
  intensity of the immunoreactivity signal for COUP-TFII: ++
COUP-TFII; [3]
  intensity of the immunoreactivity signal for COUP-TFII: −
COUP-TFII; [4]
  intensity of the immunoreactivity signal for COUP-TFII: +
hiPSC; added 2 days (48 hours) after initiating step a, duration 12 days (group 4)
  differentiation of hiPSC into atrial cardiomyocytes (immunoreactive signal for COUP-TF1 and/or COUP-TF1): low immunoreactive signal
hiPSC; added 3 days (72 hours) after initiating step a, duration 24 hours (group 3)
  differentiation of hiPSC into atrial cardiomyocytes (immunoreactive signal for COUP-TF1 and/or COUP-TF1): marginal or no immunoreactive signal
hiPSC; added 2 days (48 hours) after initiating step a, duration 48 hours (group 1)
  differentiation of hiPSC into cardiomyocytes having an atrial phenotype (immunoreactive signal for COUP-TF1 and/or COUP-TF1): strongest immunoreactive signal
hiPSC; added 3 days (72 hours) after initiating step a, duration 24 hours (group 2)
  differentiation of hiPSC into cardiomyocytes having an atrial phenotype (immunoreactive signal for COUP-TF1 and/or COUP-TF1): moderate immunoreactive signal
